Data published in patent US20260356819A1, “OXOISOINDOLINYL-SUBSTITUTED […] DERIVATIVE AND USE THEREOF” (GLUETACS THERAPEUTICS (SHANGHAI) CO., LTD., priority 2023, published 2026).

What was measured:
Assay type in all cases: cell-based
Settings in all cases: compounds at 50 nM and 500 nM
IKZF3 = target: T1, IKZF3 (Homo sapiens, UniProt Q96SW2+Q9UKT9); experiment: Western blot degradation of IKZF3 in hPBMCs (24 h)
T1 construct: The supernatant was aspirated as the extracted total cell protein; endogenous in cells; host or cells: human peripheral blood mononuclear cells (hPBMCs)
How it was run: (§1)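 Western blot densitometry after 24 h treatment of human PBMCs (1×10^6 cells/mL) with 50 nM or 500 nM compound. Remaining target (%) = band intensity over internal-control band, normalized to DMSO; degradation = 1 − remaining; DC50 is the concentration giving half the DMSO band signal.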

IKZF1 = target: T2, IKZF1 (Homo sapiens, UniProt Q13422+Q96SW2); experiment: Western blot degradation of IKZF1 in hPBMCs (24 h)
T2 construct: The supernatant was aspirated as the extracted total cell protein; endogenous in cells; host or cells: human peripheral blood mononuclear cells (hPBMCs)
How it was run: as §1

IKZF2 = target: T3, IKZF2 (Homo sapiens, UniProt Q96SW2+Q9UKS7); experiment: Western blot degradation of IKZF2 in hPBMCs (24 h)
T3 construct: The supernatant was aspirated as the extracted total cell protein; endogenous in cells; host or cells: human peripheral blood mononuclear cells (hPBMCs)
How it was run: as §1

WEE1 = target: T4, WEE1 (Homo sapiens, UniProt P30291+Q96SW2); experiment: Western blot degradation of WEE1 in hPBMCs (24 h)
T4 construct: The supernatant was aspirated as the extracted total cell protein; endogenous in cells; host or cells: human peripheral blood mononuclear cells (hPBMCs)
How it was run: as §1

CK1α = target: T5, CK1α (Homo sapiens, UniProt P48729+Q96SW2); experiment: Western blot degradation of CK1α in hPBMCs (24 h)
T5 construct: The supernatant was aspirated as the extracted total cell protein; endogenous in cells; host or cells: human peripheral blood mononuclear cells (hPBMCs)
How it was run: as §1

GSPT1 = target: T6, GSPT1 (Homo sapiens, UniProt P15170+Q96SW2); experiment: Western blot degradation of GSPT1 in hPBMCs (24 h)
T6 construct: The supernatant was aspirated as the extracted total cell protein; endogenous in cells; host or cells: human peripheral blood mononuclear cells (hPBMCs)
How it was run: as §1

T5 sequence (P48729 whole entry): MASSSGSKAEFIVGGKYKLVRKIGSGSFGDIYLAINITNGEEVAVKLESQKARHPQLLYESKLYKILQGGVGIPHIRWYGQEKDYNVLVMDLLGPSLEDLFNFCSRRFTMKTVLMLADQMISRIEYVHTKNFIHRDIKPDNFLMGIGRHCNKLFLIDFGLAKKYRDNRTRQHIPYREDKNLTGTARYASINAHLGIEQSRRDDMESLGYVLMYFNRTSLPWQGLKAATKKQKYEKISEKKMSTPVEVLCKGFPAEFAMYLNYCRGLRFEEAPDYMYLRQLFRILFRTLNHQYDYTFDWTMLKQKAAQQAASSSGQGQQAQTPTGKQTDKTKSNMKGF
T5 sequence (Q96SW2 whole entry): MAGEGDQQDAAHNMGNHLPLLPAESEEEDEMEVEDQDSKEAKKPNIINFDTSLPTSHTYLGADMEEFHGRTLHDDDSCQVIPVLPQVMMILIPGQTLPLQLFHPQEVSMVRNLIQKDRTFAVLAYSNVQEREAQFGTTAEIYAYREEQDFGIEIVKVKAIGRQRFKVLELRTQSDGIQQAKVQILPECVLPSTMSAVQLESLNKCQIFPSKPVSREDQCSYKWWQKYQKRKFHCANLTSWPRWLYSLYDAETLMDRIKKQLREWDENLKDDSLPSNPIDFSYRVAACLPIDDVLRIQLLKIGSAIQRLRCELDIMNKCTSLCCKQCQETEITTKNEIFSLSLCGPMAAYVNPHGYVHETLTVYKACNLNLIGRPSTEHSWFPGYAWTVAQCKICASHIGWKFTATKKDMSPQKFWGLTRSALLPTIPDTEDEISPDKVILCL
T5 sequence (Q16531 whole entry partner): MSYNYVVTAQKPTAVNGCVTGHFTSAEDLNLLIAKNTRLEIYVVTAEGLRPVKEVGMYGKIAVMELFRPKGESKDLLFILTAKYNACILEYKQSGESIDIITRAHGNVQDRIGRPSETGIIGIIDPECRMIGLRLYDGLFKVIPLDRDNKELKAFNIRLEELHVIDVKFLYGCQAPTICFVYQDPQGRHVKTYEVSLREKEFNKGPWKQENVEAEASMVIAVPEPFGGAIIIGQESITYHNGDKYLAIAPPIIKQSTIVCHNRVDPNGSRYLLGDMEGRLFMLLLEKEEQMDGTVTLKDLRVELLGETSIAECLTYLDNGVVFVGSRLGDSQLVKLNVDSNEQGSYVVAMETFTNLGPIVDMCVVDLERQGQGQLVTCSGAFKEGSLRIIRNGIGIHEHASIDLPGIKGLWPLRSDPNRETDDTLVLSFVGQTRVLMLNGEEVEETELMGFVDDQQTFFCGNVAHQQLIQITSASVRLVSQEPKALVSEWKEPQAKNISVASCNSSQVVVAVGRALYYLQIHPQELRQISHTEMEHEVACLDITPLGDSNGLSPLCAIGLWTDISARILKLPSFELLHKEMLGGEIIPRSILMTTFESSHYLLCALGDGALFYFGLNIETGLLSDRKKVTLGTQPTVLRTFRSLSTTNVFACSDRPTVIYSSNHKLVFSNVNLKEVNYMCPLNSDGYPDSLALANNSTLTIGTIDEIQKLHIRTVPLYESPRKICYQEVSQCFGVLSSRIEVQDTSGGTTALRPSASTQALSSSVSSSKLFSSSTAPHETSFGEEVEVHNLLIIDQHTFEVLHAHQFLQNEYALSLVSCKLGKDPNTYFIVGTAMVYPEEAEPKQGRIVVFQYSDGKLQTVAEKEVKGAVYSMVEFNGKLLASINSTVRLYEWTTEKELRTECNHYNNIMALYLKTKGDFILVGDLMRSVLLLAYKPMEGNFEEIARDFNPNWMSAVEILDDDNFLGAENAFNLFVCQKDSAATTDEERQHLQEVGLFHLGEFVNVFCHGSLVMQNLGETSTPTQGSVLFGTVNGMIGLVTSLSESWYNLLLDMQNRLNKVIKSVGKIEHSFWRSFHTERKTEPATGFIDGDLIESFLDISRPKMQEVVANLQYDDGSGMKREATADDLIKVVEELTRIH
T6 sequence (P15170 whole entry): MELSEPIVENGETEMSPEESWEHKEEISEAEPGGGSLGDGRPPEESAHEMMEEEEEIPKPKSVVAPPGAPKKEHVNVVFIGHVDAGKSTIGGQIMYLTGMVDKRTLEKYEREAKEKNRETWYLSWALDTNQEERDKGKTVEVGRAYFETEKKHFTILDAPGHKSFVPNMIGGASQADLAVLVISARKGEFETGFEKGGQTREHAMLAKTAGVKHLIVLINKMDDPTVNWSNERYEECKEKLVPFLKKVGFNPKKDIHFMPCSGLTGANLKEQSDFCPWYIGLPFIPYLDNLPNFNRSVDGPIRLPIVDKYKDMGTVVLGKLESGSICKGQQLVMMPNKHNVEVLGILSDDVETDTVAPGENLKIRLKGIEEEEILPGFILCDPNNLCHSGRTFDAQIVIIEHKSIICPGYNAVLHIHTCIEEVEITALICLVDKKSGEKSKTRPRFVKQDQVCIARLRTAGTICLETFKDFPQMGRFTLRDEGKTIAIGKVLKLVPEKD
T6 sequence (Q96SW2 whole entry): as the sequence (Q96SW2 whole entry) above
T6 sequence (Q16531 whole entry partner): as the sequence (Q16531 whole entry partner) above
T4 sequence (P30291 whole entry): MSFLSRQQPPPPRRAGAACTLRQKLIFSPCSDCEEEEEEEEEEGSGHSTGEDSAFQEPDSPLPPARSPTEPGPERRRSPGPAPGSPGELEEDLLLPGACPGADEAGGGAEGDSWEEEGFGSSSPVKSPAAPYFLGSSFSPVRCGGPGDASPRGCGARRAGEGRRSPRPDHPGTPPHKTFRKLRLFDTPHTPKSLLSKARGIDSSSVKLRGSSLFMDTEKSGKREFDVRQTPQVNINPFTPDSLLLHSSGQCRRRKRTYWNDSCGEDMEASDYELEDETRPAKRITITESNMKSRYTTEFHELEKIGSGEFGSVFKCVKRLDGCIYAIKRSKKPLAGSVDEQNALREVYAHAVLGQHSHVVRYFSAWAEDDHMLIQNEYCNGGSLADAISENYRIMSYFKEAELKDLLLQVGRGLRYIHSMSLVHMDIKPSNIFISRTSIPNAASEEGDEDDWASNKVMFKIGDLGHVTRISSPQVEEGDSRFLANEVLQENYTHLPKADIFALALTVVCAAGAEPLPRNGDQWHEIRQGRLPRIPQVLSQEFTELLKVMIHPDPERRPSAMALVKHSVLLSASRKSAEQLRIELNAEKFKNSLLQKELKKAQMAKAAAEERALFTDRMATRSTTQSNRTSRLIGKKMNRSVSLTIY
T4 sequence (Q96SW2 whole entry): as the sequence (Q96SW2 whole entry) above
T4 sequence (Q16531 whole entry partner): as the sequence (Q16531 whole entry partner) above
T3 sequence (Q9UKS7 whole entry): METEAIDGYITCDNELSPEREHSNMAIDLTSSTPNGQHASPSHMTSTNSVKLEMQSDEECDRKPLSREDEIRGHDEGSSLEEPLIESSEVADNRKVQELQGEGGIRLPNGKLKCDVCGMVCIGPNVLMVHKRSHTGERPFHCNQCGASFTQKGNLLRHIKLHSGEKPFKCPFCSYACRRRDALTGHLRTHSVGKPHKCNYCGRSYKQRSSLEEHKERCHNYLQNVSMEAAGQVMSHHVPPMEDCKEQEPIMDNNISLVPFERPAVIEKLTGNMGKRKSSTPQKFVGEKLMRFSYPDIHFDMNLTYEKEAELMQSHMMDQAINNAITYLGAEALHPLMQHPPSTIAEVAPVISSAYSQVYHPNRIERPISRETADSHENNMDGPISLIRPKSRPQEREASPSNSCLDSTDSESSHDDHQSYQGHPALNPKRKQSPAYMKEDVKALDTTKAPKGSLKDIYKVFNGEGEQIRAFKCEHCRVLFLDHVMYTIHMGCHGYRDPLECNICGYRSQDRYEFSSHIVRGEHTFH
T3 sequence (Q96SW2 whole entry): as the sequence (Q96SW2 whole entry) above
T3 sequence (Q16531 whole entry partner): as the sequence (Q16531 whole entry partner) above
T1 sequence (Q9UKT9 whole entry): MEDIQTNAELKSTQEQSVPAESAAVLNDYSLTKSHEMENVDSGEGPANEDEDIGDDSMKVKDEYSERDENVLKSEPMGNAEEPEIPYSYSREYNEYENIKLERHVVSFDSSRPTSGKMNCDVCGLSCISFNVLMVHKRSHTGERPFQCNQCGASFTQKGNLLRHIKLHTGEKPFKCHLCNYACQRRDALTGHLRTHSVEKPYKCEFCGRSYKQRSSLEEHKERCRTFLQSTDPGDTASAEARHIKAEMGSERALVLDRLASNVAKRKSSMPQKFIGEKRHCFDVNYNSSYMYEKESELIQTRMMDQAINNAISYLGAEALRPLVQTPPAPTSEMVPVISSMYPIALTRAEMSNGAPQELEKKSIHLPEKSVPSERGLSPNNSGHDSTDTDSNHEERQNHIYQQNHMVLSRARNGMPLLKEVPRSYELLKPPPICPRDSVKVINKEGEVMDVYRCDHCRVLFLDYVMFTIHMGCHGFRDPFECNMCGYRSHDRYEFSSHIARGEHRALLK
T1 sequence (Q96SW2 whole entry): as the sequence (Q96SW2 whole entry) above
T1 sequence (Q16531 whole entry partner): as the sequence (Q16531 whole entry partner) above

CC1(C)CCC(CN2CC3CCC(C2)N3Cc2ccc3c(c2)CN(N2CCC(=O)NC2=O)C3=O)=C(c2ccc(Cl)cc2)C1 [GT-07330, 1-(5-((3-((4′-chloro-5,5-dimethyl-3,4,5,6-tetrahydro-[1,1′-biphenyl]-2-yl)methyl)-3,8-diazabicyclo[3.2.1]octan-8-yl)methyl)-1-oxoisoindolin-2-yl)dihydropyrimidine-2,4(1H,3H)-dione]
IKZF3 substrate protein remaining % (IKZF3): A (0% ≤ substrate protein remaining % ≤80%)
IKZF1 substrate protein remaining % (IKZF1): A (0% ≤ substrate protein remaining % ≤80%)
IKZF2 substrate protein remaining % (IKZF2): A (0% ≤ substrate protein remaining % ≤80%)
WEE1 substrate protein remaining % (WEE1): A (0% ≤ substrate protein remaining % ≤80%)
CK1α substrate protein remaining % (CK1α): B (80%< substrate protein remaining % ≤100%)
GSPT1 substrate protein remaining % (GSPT1): A (0% ≤ substrate protein remaining % ≤80%)

CC1(C)CCC(CN2CC3CCC2CN3Cc2ccc3c(c2)CN(N2CCC(=O)NC2=O)C3=O)=C(c2ccc(Cl)cc2)C1 (stereo not drawn) [GT-07331, 1-(5-((5-((4′-chloro-5,5-dimethyl-3,4,5,6-tetrahydro-[1,1′-biphenyl]-2-yl)methyl)-2,5-diazabicyclo[2.2.2]octan-2-yl)methyl)-1-oxoisoindolin-2-yl)dihydropyrimidine-2,4(1H,3H)-dione]
IKZF3 substrate protein remaining % (IKZF3): A (0% ≤ substrate protein remaining % ≤80%)
IKZF1 substrate protein remaining % (IKZF1): A (0% ≤ substrate protein remaining % ≤80%)
IKZF2 substrate protein remaining % (IKZF2): B (80%< substrate protein remaining % ≤100%)
WEE1 substrate protein remaining % (WEE1): A (0% ≤ substrate protein remaining % ≤80%)
CK1α substrate protein remaining % (CK1α): A (0% ≤ substrate protein remaining % ≤80%)
GSPT1 substrate protein remaining % (GSPT1): A (0% ≤ substrate protein remaining % ≤80%)

CC1(C)CC(c2ccc(Cl)cc2)=C(CN2CCN(Cc3ccc4c(c3)CN(N3CCC(=O)NC3=O)C4=O)CC2)CO1 [GT-07332, 1-(5-((4-((4-(4-chlorophenyl)-6,6-dimethyl-5,6-dihydro-2H-pyran-3-yl)methyl)piperazin-1-yl)methyl)-1-oxoisoindolin-2-yl)dihydropyrimidine-2,4(1H,3H)-dione]
IKZF3 substrate protein remaining % (IKZF3): A (0% ≤ substrate protein remaining % ≤80%)
IKZF1 substrate protein remaining % (IKZF1): A (0% ≤ substrate protein remaining % ≤80%)
IKZF2 substrate protein remaining % (IKZF2): B (80%< substrate protein remaining % ≤100%)
WEE1 substrate protein remaining % (WEE1): A (0% ≤ substrate protein remaining % ≤80%)
CK1α substrate protein remaining % (CK1α): B (80%< substrate protein remaining % ≤100%)
GSPT1 substrate protein remaining % (GSPT1): A (0% ≤ substrate protein remaining % ≤80%)

CC1(C)CCC(CN2CC3CCC(C2)N3Cc2ccc3c(c2)C(=O)N(N2CCC(=O)NC2=O)C3=O)=C(c2ccc(Cl)cc2)C1 [GT-07333, 5-((3-((4′-chloro-5,5-dimethyl-3,4,5,6-tetrahydro-[1,1′-biphenyl]-2-yl)methyl)-3,8-diazabicyclo[3.2.1]octan-8-yl)methyl)-2-(2,4-dioxotetrahydropyrimidin-1(2H)-yl)isoindoline-1,3-dione]
IKZF3 substrate protein remaining % (IKZF3): B (80%< substrate protein remaining % ≤100%)
IKZF1 substrate protein remaining % (IKZF1): B (80%< substrate protein remaining % ≤100%)
IKZF2 substrate protein remaining % (IKZF2): B (80%< substrate protein remaining % ≤100%)
WEE1 substrate protein remaining % (WEE1): B (80%< substrate protein remaining % ≤100%)
CK1α substrate protein remaining % (CK1α): B (80%< substrate protein remaining % ≤100%)
GSPT1 substrate protein remaining % (GSPT1): A (0% ≤ substrate protein remaining % ≤80%)

CC1(C)CCC(CN2CC3CC2CN3Cc2ccc3c(c2)C(=O)N(N2CCC(=O)NC2=O)C3=O)=C(c2ccc(Cl)cc2)C1 (stereo not drawn) [GT-07334, 5-((5-((4′-chloro-5,5-dimethyl-3,4,5,6-tetrahydro-[1,1′-biphenyl]-2-yl)methyl)-2,5-diazabicyclo[2.2.1]heptan-2-yl)methyl)-2-(2,4-dioxotetrahydropyrimidin-1(2H)-yl)isoindoline-1,3-dione]
IKZF3 substrate protein remaining % (IKZF3): B (80%< substrate protein remaining % ≤100%)
IKZF1 substrate protein remaining % (IKZF1): B (80%< substrate protein remaining % ≤100%)
IKZF2 substrate protein remaining % (IKZF2): B (80%< substrate protein remaining % ≤100%)
WEE1 substrate protein remaining % (WEE1): A (0% ≤ substrate protein remaining % ≤80%)
CK1α substrate protein remaining % (CK1α): A (0% ≤ substrate protein remaining % ≤80%)
GSPT1 substrate protein remaining % (GSPT1): B (80%< substrate protein remaining % ≤100%)

Cc1cscc1C1CCN(Cc2ccc3c(c2)CN(N2CCC(=O)NC2=O)C3=O)CC1 [GT-07372, 1-(5-((4-(4-methylthiophen-3-yl)piperidin-1-yl)methyl)-1-oxoisoindolin-2-yl)dihydropyrimidine-2,4(1H,3H)-dione]
IKZF3 substrate protein remaining % (IKZF3): A (0% ≤ substrate protein remaining % ≤80%)
IKZF1 substrate protein remaining % (IKZF1): B (80%< substrate protein remaining % ≤100%)
IKZF2 substrate protein remaining % (IKZF2): B (80%< substrate protein remaining % ≤100%)
WEE1 substrate protein remaining % (WEE1): B (80%< substrate protein remaining % ≤100%)
CK1α substrate protein remaining % (CK1α): B (80%< substrate protein remaining % ≤100%)
GSPT1 substrate protein remaining % (GSPT1): A (0% ≤ substrate protein remaining % ≤80%)

Cc1cc(C2CCN(Cc3ccc4c(c3)CN(N3CCC(=O)NC3=O)C4=O)CC2)cs1 [GT-07373, 1-(5-((4-(5-methylthiophen-3-yl)piperidin-1-yl)methyl)-1-oxoisoindolin-2-yl)dihydropyrimidine-2,4(1H,3H)-dione]
IKZF3 substrate protein remaining % (IKZF3): A (0% ≤ substrate protein remaining % ≤80%)
IKZF1 substrate protein remaining % (IKZF1): B (80%< substrate protein remaining % ≤100%)
IKZF2 substrate protein remaining % (IKZF2): B (80%< substrate protein remaining % ≤100%)
WEE1 substrate protein remaining % (WEE1): B (80%< substrate protein remaining % ≤100%)
CK1α substrate protein remaining % (CK1α): B (80%< substrate protein remaining % ≤100%)
GSPT1 substrate protein remaining % (GSPT1): A (0% ≤ substrate protein remaining % ≤80%)

O=C1CCN(N2Cc3cc(CN4CCC(c5ccco5)CC4)ccc3C2=O)C(=O)N1 [GT-07374, 1-(5-((4-(furan-2-y1)piperidin-1-yl)methyl)-1-oxoisoindolin-2-yl)dihydropyrimidine-2,4(1H,3H)-dione]
IKZF3 substrate protein remaining % (IKZF3): B (80%< substrate protein remaining % ≤100%)
IKZF1 substrate protein remaining % (IKZF1): B (80%< substrate protein remaining % ≤100%)
IKZF2 substrate protein remaining % (IKZF2): B (80%< substrate protein remaining % ≤100%)
WEE1 substrate protein remaining % (WEE1): B (80%< substrate protein remaining % ≤100%)
CK1α substrate protein remaining % (CK1α): A (0% ≤ substrate protein remaining % ≤80%)
GSPT1 substrate protein remaining % (GSPT1): A (0% ≤ substrate protein remaining % ≤80%)

O=C1CCN(N2Cc3cc(CN4CCC(c5ccoc5)CC4)ccc3C2=O)C(=O)N1 [GT-07375, 1-(5-((4-(furan-3-yl)piperidin-1-yl)methyl)-1-oxoisoindolin-2-yl)dihydropyrimidine-2,4(1H,3H)-dione]
IKZF3 substrate protein remaining % (IKZF3): B (80%< substrate protein remaining % ≤100%)
IKZF1 substrate protein remaining % (IKZF1): B (80%< substrate protein remaining % ≤100%)
IKZF2 substrate protein remaining % (IKZF2): B (80%< substrate protein remaining % ≤100%)
WEE1 substrate protein remaining % (WEE1): B (80%< substrate protein remaining % ≤100%)
CK1α substrate protein remaining % (CK1α): A (0% ≤ substrate protein remaining % ≤80%)
GSPT1 substrate protein remaining % (GSPT1): A (0% ≤ substrate protein remaining % ≤80%)

O=C1CCN(N2Cc3cc(CN4C5CC4CN(C(=O)C4=C(c6ccc(F)cc6)CCCC4)C5)ccc3C2=O)C(=O)N1 [GT-07376, 1-(5-((3-(4′-fluoro-3,4,5,6-tetrahydro-[1,1′-biphenyl]-2-carbonyl)-3,6-diazabicyclo[3.1.1]heptan-6-yl)methyl)-1-oxoisoindolin-2-yl)dihydropyrimidine-2,4(1H,3H)-dione]
IKZF3 substrate protein remaining % (IKZF3): B (80%< substrate protein remaining % ≤100%)
IKZF1 substrate protein remaining % (IKZF1): B (80%< substrate protein remaining % ≤100%)
IKZF2 substrate protein remaining % (IKZF2): B (80%< substrate protein remaining % ≤100%)
WEE1 substrate protein remaining % (WEE1): A (0% ≤ substrate protein remaining % ≤80%)
CK1α substrate protein remaining % (CK1α): B (80%< substrate protein remaining % ≤100%)
GSPT1 substrate protein remaining % (GSPT1): B (80%< substrate protein remaining % ≤100%)

O=C1CCN(N2C(=O)c3ccc(CN4C5CC4CN(C(=O)C4=C(c6ccc(F)cc6)CCCC4)C5)cc3C2=O)C(=O)N1 [GT-07377, 2-(2,4-dioxotetrahydropyrimidin-1(2H)-yl)-5-((3-(4′-fluoro-3,4,5,6-tetrahydro-[1,1′-biphenyl]-2-carbonyl)-3,6-diazabicyclo[3.1.1]heptan-6-yl)methyl)isoindoline-1,3-dione]
IKZF3 substrate protein remaining % (IKZF3): B (80%< substrate protein remaining % ≤100%)
IKZF1 substrate protein remaining % (IKZF1): B (80%< substrate protein remaining % ≤100%)
IKZF2 substrate protein remaining % (IKZF2): A (0% ≤ substrate protein remaining % ≤80%)
WEE1 substrate protein remaining % (WEE1): A (0% ≤ substrate protein remaining % ≤80%)
CK1α substrate protein remaining % (CK1α): A (0% ≤ substrate protein remaining % ≤80%)
GSPT1 substrate protein remaining % (GSPT1): A (0% ≤ substrate protein remaining % ≤80%)

O=C1CCN(N2C(=O)c3ccc(CN4CCC(c5ccsc5)CC4)cc3C2=O)C(=O)N1 [GT-07420, 2-(2,4-dioxotetrahydropyrimidin-1(2H)-yl)-5-((4-(thiophen-3-yl)piperidin-1-yl)methyl)isoindoline-1,3-dione]
IKZF3 substrate protein remaining % (IKZF3): B (80%< substrate protein remaining % ≤100%)
IKZF1 substrate protein remaining % (IKZF1): B (80%< substrate protein remaining % ≤100%)
IKZF2 substrate protein remaining % (IKZF2): B (80%< substrate protein remaining % ≤100%)
WEE1 substrate protein remaining % (WEE1): B (80%< substrate protein remaining % ≤100%)
CK1α substrate protein remaining % (CK1α): A (0% ≤ substrate protein remaining % ≤80%)
GSPT1 substrate protein remaining % (GSPT1): A (0% ≤ substrate protein remaining % ≤80%)
